Data set [1] concerns the target T1, AsnO D241N (Streptomyces coelicolor, UniProt Q9Z4Z5, D241N/M1S). Nature of the data set: Substrate specificity of the mutated protein AsnO D241N, HPLC/MS. In kind it is biochemical. Also noted: made in house; host or cells: E. coli BL21 (DE3), pQTEV vector. As to conditions: amino acid 1.5 mM, 16 h at 16° C., (NH4)2Fe(SO4)2 1 mM, α-ketoglutarate 4 mM, catalase, HEPES pH 7.5. As for the experimental part:
The specificity of AsnO D241N for the conversion of L-Asp in L-threo-3-hydroxyaspartate is examined by incubating this mutated protein during 16 h at 16° C. with the amino acids (1.5 mM) listed in Table 1, the cofactor (NH4)2Fe(SO4)2 (1 mM), the cosubstrate α-ketoglutarate (4 mM) and 20 μg catalase in […] of a 50 mM HEPES buffer (pH 7.5). The catalase is added in order to quench reactive oxygen species and to prevent hereby the autoxidation of the enzyme. Controls are carried out in the absence of AsnO D241N.
The reaction is stopped by the addition of 50-200 μL of a 4% solution (V/V) of nonafluoropentane acid and subsequently the hydroxylation of the amino acid substrate to the respectively corresponding hydroxy amino acid is examined by means of reversed phase HPLC/MS. Column: Hypercarb (Thermo Electron Corporation, pore diameters of 250 Å, particle size of 5 μM, 100% carbon). Mobile phases: A=20 mM aqueous nonafluoropentane acid, B=acetonitrile. Gradient: 0-10% B in 12 min, flow rate 0.2 mL/min at 17.5° C.
The reaction product of the incubation of the respective amino acid with AsnO D241N is carried out by means of highest resolution MS with an API Qstar Pulsar I (Applied Biosystems).

For another data set, the system named is glutamate transporters. The following applies: literature statement; cited from earlier work.
Data set [2] concerns the target T1, AsnO D241N. As to conditions: AsnO D241N 40 μM, substrate L-Asp 50 μM to 2 mM.
Data set [3] deals with T1, AsnO D241N. Nature of the data set: Activity of the AsnO D241N mutant: conversion of L-Asp, HPLC MS. In kind it is biochemical. Also noted: made in house; host or cells: E. coli BL21 (DE3), pQTEV vector. As to conditions: AsnO D241N 40 μM, 1.5 mM L-Asp, 1.0 mM (NH4)2Fe(SO4)2, 1.0 mM α-ketoglutarate, 16 h, 16° C. As for the experimental part:
In order to evaluate the activity of the AsnO D241N mutant, the purified enzyme
The reaction is monitored by means of HPLC MS, by scanning the masses for L-Asp ([M+H]^+=[…]) and its hydroxylated form ([M+H]^+=150.04 Da). […] (FIG. 3a). In the control reaction, in which no enzyme is added, only L-Asp can be detected (FIG. 3b). Commercially available L-Asp (Bachem) as well as L-threo-3-hydroxyaspartate (Tocris Bioscience) are used as standards for the comparison of the retention times with HPLC.
Column: Hypercarb (Thermo Electron Corporation, pore diameters of 250 Å, particle size of 5 μM, 100% carbon). Mobile phases: A=20 mM aqueous nonafluoropentane acid, B=acetonitrile Gradient: 0-10% B in 12 min, flow rate 0.2 mL 1 min at 17.5° C. • FIG. 3a: negative control, no addition of enzyme (=AsnO D241N) • Only L-Asp is detected. • Retention time: 3.72 min; • Mber=134.045, Mgef=134.048 • FIG. 3b: incubation of L-Asp with AsnO D241N • After 16 h of incubation at 16° C. only • L-threo-3-hydroxyaspartate is detected. • Retention time 3.39 min; • Mber=150.040, Mgef=150.042

In a further data set the test system is wild type AsnO. Nature of the data set: Kinetic parameters of the wild type AsnO for L-Asn (comparison). In kind it is biochemical, Streptomyces coelicolor. As to conditions: wild type AsnO with L-Asn versus AsnO D241N with L-Asp.
Substrate in data set [4]: NC(=O)C[C@H](N)C(=O)O
The data set is described as above. In kind it is biochemical, Streptomyces coelicolor. As to conditions: other: wild type AsnO, substrate L-Asn.

T1 sequence (Q9Z4Z5 other isoform, or with tags, fused parts or gaps D241N): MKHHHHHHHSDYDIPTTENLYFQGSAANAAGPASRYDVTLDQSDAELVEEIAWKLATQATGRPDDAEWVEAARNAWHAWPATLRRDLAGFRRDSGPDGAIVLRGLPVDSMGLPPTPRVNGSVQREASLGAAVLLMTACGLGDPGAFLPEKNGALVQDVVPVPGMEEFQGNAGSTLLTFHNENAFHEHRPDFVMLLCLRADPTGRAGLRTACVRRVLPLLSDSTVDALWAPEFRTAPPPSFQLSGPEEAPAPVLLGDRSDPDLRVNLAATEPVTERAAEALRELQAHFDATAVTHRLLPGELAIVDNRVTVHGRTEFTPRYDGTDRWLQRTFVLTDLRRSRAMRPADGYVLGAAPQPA

For the molecule `NC(=O)CC[C@H](N)C(=O)O` [L-Gln], at AsnO D241N [1], the hydroxylation entry is “no”. As for `N[C@H](C(=O)O)[C@H](O)C(=O)O` [L-threo-hydroxaspartate, L-threo-hydroxyaspartate], the “inhibition of the function of the glutamate transporters” value in the data set with glutamate transporters is listed as “inhibits the function of the glutamate transporters”. For the molecule `N[C@@H](Cc1ccccc1)C(=O)O` [L-Phe], at AsnO D241N [1], the hydroxylation entry is recorded as “no”. Turning to `CC(C)[C@H](N)C(=O)O` [L-Val], the hydroxylation entry at AsnO D241N [1] is “no”. Still for that read-out and setting: the result for `N[C@H](CC(=O)O)C(=O)O` [D-Asp] reads “no”. In the case of `N[C@@H](Cc1c[nH]c2ccccc12)C(=O)O` [L-Trp], on AsnO D241N [1], the hydroxylation result is recorded as “no”. On to `CC[C@H](C)[C@H](N)C(=O)O` [L-Ile], for which the hydroxylation entry at AsnO D241N [1] was “no”. On to `N[C@@H](CCC(=O)O)C(=O)O` [L-Glu, L-glutamate], for which the hydroxylation result at AsnO D241N [1] is reported as “no”. As for `N[C@@H](CC(=O)O)C(=O)O` [L-Asp, L-aspartate], the hydroxylation result on AsnO D241N [1] is “yes”. Further, on AsnO D241N [2], the Michaelis-Menten constant (Km) was 457 ± 31 µM and the kcat came out at 0.0167 ± 0.0017 s⁻¹. Further, the “conversion of L-aspartate to L-threo-3-hydroxyaspartate” value at AsnO D241N [3] is on record as “Quantitative conversion”. Further, on AsnO D241N [3] (listed as L-aspartate), the “conversion of L-aspartate to L-threo-3-hydroxyaspartate” value is given as “quantitative conversion”. In the case of `NC(C(=O)O)C(OCc1ccccc1)C(=O)O` [L-TBOA], in the data set with glutamate transporters, the “inhibition of the function of the glutamate transporters” value is given as “also comprises this inhibitor effect”. For the molecule `NC(=O)C[C@H](N)C(=O)O` [L-Asn, L-asparagine], the hydroxylation entry at AsnO D241N [1] is given as “no”. The “kcat of wild type AsnO relative to AsnO D241N” value with wild type AsnO is 300 times.

B1: wild type AsnO (Streptomyces coelicolor A3(2)) (protein)
chain: MAANAAGPASRYDVTLDQSDAELVEEIAWKLATQATGRPDDAEWVEAARNAWHAWPATLRRDLAGFRRDSGPDGAIVLRGLPVDSMGLPPTPRVNGSVQREASLGAAVLLMTACGLGDPGAFLPEKNGALVQDVVPVPGMEEFQGNAGSTLLTFHNENAFHEHRPDFVMLLCLRADPTGRAGLRTACVRRVLPLLSDSTVDALWAPEFRTAPPPSFQLSGPEEAPAPVLLGDRSDPDLRVDLAATEPVTERAAEALRELQAHFDATAVTHRLLPGELAIVDNRVTVHGRTEFTPRYDGTDRWLQRTFVLTDLRRSRAMRPADGYVLGAAPQPA
On to B1, for which, in data set [4], the Km was found to be 478 ± 67 µM and the turnover number (kcat) turned out to be 4.97 ± 0.317 s⁻¹.

By Km is commonly meant the concentration of substrate that gives half-maximal velocity. One may read the kcat as the maximal rate divided by the concentration of active sites.

(Values after patent US20100184189A1, “PROTEIN FOR THE CHEMOENZYMATIC PRODUCTION OF L-THREO-HYDROXYASPARTATE” (priority 2007, published 2010).)
